The target in test [1] is T1, P-Selectin:PSGL1 interaction (Homo sapiens, UniProt P16109).
T1 construct: host or cells: HL-60 cells (ATCC, CCL-240) supply the PSGL-1 partner endogenously
T1 sequence (P16109 42-771 limits assumed): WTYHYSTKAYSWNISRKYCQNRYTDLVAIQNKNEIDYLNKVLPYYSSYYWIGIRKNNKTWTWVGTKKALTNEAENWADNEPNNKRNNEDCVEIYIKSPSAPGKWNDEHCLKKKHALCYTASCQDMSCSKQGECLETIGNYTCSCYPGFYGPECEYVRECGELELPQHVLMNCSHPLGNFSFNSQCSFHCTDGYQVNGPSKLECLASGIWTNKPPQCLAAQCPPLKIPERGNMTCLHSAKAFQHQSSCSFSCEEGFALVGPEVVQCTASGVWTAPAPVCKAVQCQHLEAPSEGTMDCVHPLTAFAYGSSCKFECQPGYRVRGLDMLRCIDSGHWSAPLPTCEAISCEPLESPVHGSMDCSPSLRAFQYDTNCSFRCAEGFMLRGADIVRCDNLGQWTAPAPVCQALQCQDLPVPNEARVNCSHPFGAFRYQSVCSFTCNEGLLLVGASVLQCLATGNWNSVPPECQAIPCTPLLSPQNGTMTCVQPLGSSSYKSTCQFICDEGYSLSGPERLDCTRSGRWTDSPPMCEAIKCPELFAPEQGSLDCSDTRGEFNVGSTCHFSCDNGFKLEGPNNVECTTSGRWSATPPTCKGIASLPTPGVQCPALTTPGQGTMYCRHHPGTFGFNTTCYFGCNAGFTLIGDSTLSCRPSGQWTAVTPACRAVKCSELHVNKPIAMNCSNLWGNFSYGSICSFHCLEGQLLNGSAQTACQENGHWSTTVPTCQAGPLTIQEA
Nature of the test: Receptor ligand inhibition assay (P-Selectin binding to HL-60 cells). The format is cell-based. The settings on record: for Inhibition at top concentration: 100−% response at top concentration. The essentials:
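Serial dilutions in HEPES buffer, pH 7.4, with 1% BSA and 0.5% DMSO were preincubated 15 min at room temperature with P-selectin (5 nM final). HL-60 cells with far-red WGA and AF488-streptavidin were then added for 2 h, binding read by microplate cytometry; IC50 from four-parameter logistic fit, % inhibition as 100−% response at top concentration.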

The target in a further test is T2, human P-Selectin protein (Homo sapiens, UniProt P16109).
T2 sequence (P16109 42-830): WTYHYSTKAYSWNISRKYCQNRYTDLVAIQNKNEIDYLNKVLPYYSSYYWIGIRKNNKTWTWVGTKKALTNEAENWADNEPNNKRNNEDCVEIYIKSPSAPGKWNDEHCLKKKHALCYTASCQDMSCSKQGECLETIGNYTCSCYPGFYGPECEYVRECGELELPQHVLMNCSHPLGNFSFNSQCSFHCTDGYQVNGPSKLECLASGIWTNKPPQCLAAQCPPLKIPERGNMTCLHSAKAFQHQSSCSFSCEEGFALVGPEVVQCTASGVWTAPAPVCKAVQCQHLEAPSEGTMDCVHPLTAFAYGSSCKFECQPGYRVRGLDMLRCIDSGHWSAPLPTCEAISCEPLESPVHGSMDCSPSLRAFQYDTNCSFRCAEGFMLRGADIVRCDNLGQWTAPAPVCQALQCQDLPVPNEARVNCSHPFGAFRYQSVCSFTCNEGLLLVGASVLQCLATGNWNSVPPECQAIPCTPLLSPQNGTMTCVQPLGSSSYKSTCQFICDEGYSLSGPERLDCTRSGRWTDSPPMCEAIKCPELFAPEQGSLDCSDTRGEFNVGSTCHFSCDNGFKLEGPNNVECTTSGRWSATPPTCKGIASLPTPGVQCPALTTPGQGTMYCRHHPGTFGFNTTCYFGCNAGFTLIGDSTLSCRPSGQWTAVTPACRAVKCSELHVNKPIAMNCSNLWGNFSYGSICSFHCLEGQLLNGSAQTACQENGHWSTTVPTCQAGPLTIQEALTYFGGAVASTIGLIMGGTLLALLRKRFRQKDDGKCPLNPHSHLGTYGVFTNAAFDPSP
Nature of the test: SPR binding assay (Biacore). The settings on record: Affinity KD determined by SPR, recombinant biotinylated human P-Selectin, 25° C. In outline: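 Biotinylated recombinant human P-Selectin was captured on a streptavidin chip (1000-1500 RU), and monomeric peptides were injected in PBS/0.05% Tween 20 with 0.5% DMSO at 25 °C (top 200 nM–50 μM, 2- or 3-fold series). Double-referenced data were fitted to a kinetic model with mass transport to give ka, kd and KD.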
On the technique in general: In SPR one partner is held on a chip, and binding of the other changes the refractive index at the surface.

[2] abbreviates: 5 nM P-Selectin, HL-60 cells, geomean of n=3, read-out: IC50.

Usually IC50 stands for the concentration needed to halve the response being measured. As a reminder, the Inhibition is the relative decrease from the control value, in per cent. Lower therefore signals little suppression. For orientation: Kd means the equilibrium constant for the complex coming apart.

Where two headings read alike, the source gives them in different places. Starred links: 1 amine or outer side, 2 acyl side, 3 side chain; linkers in the order of their positions; H or OH if unused. Positions of bridges follow the written chain, without caps; N, C: chain ends. Non-standard residues stand in square brackets, D forms with d. Chains are numbered I, II in the order given. No end group written: not given here. X3 = O=C(CCOCCN(CCOCCC(=O)NCCOCCOCCOCCOCCOCCOCCOCCOCCOCCOCCOCCOCCOCCOCCOCCOCCOCCOCCOCCOCCOCCOCCOCCn1cc(CCC(=O)[*:2])nn1)CCOCCC(=O)NCCOCCOCCOCCOCCOCCOCCOCCOCCOCCOCCOCCOCCOCCOCCOCCOCCOCCOCCOCCOCCOCCOCCOCCn1cc(CCC(=O)[*:3])nn1)NCCOCCOCCOCCOCCOCCOCCOCCOCCOCCOCCOCCOCCOCCOCCOCCOCCOCCOCCOCCOCCOCCOCCOCCn1cc(CCC(=O)[*:1])nn1; X1 = O=C(C[*:1])N1CCN(C(=O)C[*:2])CCN(C(=O)C[*:3])CC1; 1Nal = N[C@@H](Cc1cccc2ccccc12)C(=O)O

In test [1], `CC(C)C[C@@H]1NC(=O)[C@H](CO)NC(=O)[C@@H]2CCCN2C(=O)[C@H](C(C)C)NC(=O)[C@H](CC(=O)O)NC(=O)[C@@H]2CSCC(=O)N3CCN(CCN(CC3)C(=O)CSC[C@@H](C(=O)N[C@@H](C)C(=O)N[C@@H](CCCCNC(=O)CCc3cn(CCOCCOCCOCCOCCOCCOCCOCCOCCOCCOCCOCCOCCOCCOCCOCCOCCOCCOCCOCCOCCOCCOCCOCCNC(=O)CCOCC(COCCC(=O)NCCOCCOCCOCCOCCOCCOCCOCCOCCOCCOCCOCCOCCOCCOCCOCCOCCOCCOCCOCCOCCOCCOCCOCCn4cc(CCC(=O)NCCCC[C@H](NC(=O)[C@H](C)NC(=O)[C@@H]5CSCC(=O)N6CCN7CCN(CC6)C(=O)CSC[C@H](NC(=O)[C@H](Cc6c[nH]c8ccccc68)NC(=O)[C@H](CC(=O)O)NC(=O)[C@H](C)NC(=O)[C@H](CC(=O)O)NC(=O)[C@@H](NC(=O)[C@H](C)N)CSCC7=O)C(=O)N[C@@H](CC(=O)O)C(=O)N[C@@H](C(C)C)C(=O)N6CCC[C@H]6C(=O)N[C@@H](CO)C(=O)N[C@@H](CC(C)C)C(=O)N6CCC[C@H]6C(=O)N5)C(N)=O)nn4)(COCCC(=O)NCCOCCOCCOCCOCCOCCOCCOCCOCCOCCOCCOCCOCCOCCOCCOCCOCCOCCOCCOCCOCCOCCOCCOCCn4cc(CCC(=O)NCCCC[C@H](NC(=O)[C@H](C)NC(=O)[C@@H]5CSCC(=O)N6CCN7CCN(CC6)C(=O)CSC[C@H](NC(=O)[C@H](Cc6c[nH]c8ccccc68)NC(=O)[C@H](CC(=O)O)NC(=O)[C@H](C)NC(=O)[C@H](CC(=O)O)NC(=O)[C@@H](NC(=O)[C@H](C)N)CSCC7=O)C(=O)N[C@@H](CC(=O)O)C(=O)N[C@@H](C(C)C)C(=O)N6CCC[C@H]6C(=O)N[C@@H](CO)C(=O)N[C@@H](CC(C)C)C(=O)N6CCC[C@H]6C(=O)N5)C(N)=O)nn4)COCCC(=O)NCCOCCOCCOCCOCCOCCOCCOCCOCCOCCOCCOCCOCCOCCOCCOCCOCCOCCOCCOCCOCCOCCOCCOCCn4cc(CCC(=O)NCCCC[C@H](NC(=O)[C@H](C)NC(=O)[C@@H]5CSCC(=O)N6CCN7CCN(CC6)C(=O)CSC[C@H](NC(=O)[C@H](Cc6c[nH]c8ccccc68)NC(=O)[C@H](CC(=O)O)NC(=O)[C@H](C)NC(=O)[C@H](CC(=O)O)NC(=O)[C@@H](NC(=O)[C@H](C)N)CSCC7=O)C(=O)N[C@@H](CC(=O)O)C(=O)N[C@@H](C(C)C)C(=O)N6CCC[C@H]6C(=O)N[C@@H](CO)C(=O)N[C@@H](CC(C)C)C(=O)N6CCC[C@H]6C(=O)N5)C(N)=O)nn4)nn3)C(N)=O)NC(=O)[C@@H]3CCCN3C1=O)C(=O)CSC[C@H](NC(=O)[C@H](C)N)C(=O)N[C@@H](CC(=O)O)C(=O)N[C@@H](C)C(=O)N[C@@H](CC(=O)O)C(=O)N[C@@H](Cc1c[nH]c3ccccc13)C(=O)N2` [BCY12261] displayed a concentration for half-maximal inhibition (IC50) of 10.4 nM. Besides, the “Inhibition at top concentration” value in test [1] (geomean of n=3) is 68%. Moreover, the Kd at human P-Selectin protein was 0.019 nM.
As to `CC(C)C[C@@H]1NC(=O)[C@H](CO)NC(=O)[C@@H]2CCCN2C(=O)[C@H](C(C)C)NC(=O)[C@H](CC(=O)O)NC(=O)[C@@H]2CSCC(=O)N3CCN(CCN(CC3)C(=O)CSC[C@@H](C(=O)N[C@@H](C)C(=O)N[C@@H](CCCCNC(=O)CCc3cn(CCOCCOCCOCCOCCOCCOCCOCCOCCOCCOCCOCCOCCOCCOCCOCCOCCOCCOCCOCCOCCOCCOCCOCCNC(=O)CCOCC(COCCC(=O)NCCOCCOCCOCCOCCOCCOCCOCCOCCOCCOCCOCCOCCOCCOCCOCCOCCOCCOCCOCCOCCOCCOCCOCCn4cc(CCC(=O)NCCCC[C@H](NC(=O)[C@H](C)NC(=O)[C@@H]5CSCC(=O)N6CCN7CCN(CC6)C(=O)CSC[C@H](NC(=O)[C@H](Cc6cccc8ccccc68)NC(=O)[C@H](CC(=O)O)NC(=O)[C@H](C)NC(=O)[C@H](CC(=O)O)NC(=O)[C@@H](NC(=O)[C@H](C)N)CSCC7=O)C(=O)N[C@@H](CC(=O)O)C(=O)N[C@@H](C(C)C)C(=O)N6CCC[C@H]6C(=O)N[C@@H](CO)C(=O)N[C@@H](CC(C)C)C(=O)N6CCC[C@H]6C(=O)N5)C(N)=O)nn4)(COCCC(=O)NCCOCCOCCOCCOCCOCCOCCOCCOCCOCCOCCOCCOCCOCCOCCOCCOCCOCCOCCOCCOCCOCCOCCOCCn4cc(CCC(=O)NCCCC[C@H](NC(=O)[C@H](C)NC(=O)[C@@H]5CSCC(=O)N6CCN7CCN(CC6)C(=O)CSC[C@H](NC(=O)[C@H](Cc6cccc8ccccc68)NC(=O)[C@H](CC(=O)O)NC(=O)[C@H](C)NC(=O)[C@H](CC(=O)O)NC(=O)[C@@H](NC(=O)[C@H](C)N)CSCC7=O)C(=O)N[C@@H](CC(=O)O)C(=O)N[C@@H](C(C)C)C(=O)N6CCC[C@H]6C(=O)N[C@@H](CO)C(=O)N[C@@H](CC(C)C)C(=O)N6CCC[C@H]6C(=O)N5)C(N)=O)nn4)COCCC(=O)NCCOCCOCCOCCOCCOCCOCCOCCOCCOCCOCCOCCOCCOCCOCCOCCOCCOCCOCCOCCOCCOCCOCCOCCn4cc(CCC(=O)NCCCC[C@H](NC(=O)[C@H](C)NC(=O)[C@@H]5CSCC(=O)N6CCN7CCN(CC6)C(=O)CSC[C@H](NC(=O)[C@H](Cc6cccc8ccccc68)NC(=O)[C@H](CC(=O)O)NC(=O)[C@H](C)NC(=O)[C@H](CC(=O)O)NC(=O)[C@@H](NC(=O)[C@H](C)N)CSCC7=O)C(=O)N[C@@H](CC(=O)O)C(=O)N[C@@H](C(C)C)C(=O)N6CCC[C@H]6C(=O)N[C@@H](CO)C(=O)N[C@@H](CC(C)C)C(=O)N6CCC[C@H]6C(=O)N5)C(N)=O)nn4)nn3)C(N)=O)NC(=O)[C@@H]3CCCN3C1=O)C(=O)CSC[C@H](NC(=O)[C@H](C)N)C(=O)N[C@@H](CC(=O)O)C(=O)N[C@@H](C)C(=O)N[C@@H](CC(=O)O)C(=O)N[C@@H](Cc1cccc3ccccc13)C(=O)N2` [BCY12262], the IC50 in test [1] worked out at 3.29 nM. Further, in test [1] (geomean of n=3), the “Inhibition at top concentration” value was 68%. In addition, the Kd on human P-Selectin protein came out at 0.017 nM.
“I: ACDADWCDVPSLPCAK-NH2 / II: ACDADWCDVPSLPCAK-NH2 / III: ACDADWCDVPSLPCAK-NH2 (linker I:2-I:7-I:14, II:2-II:7-II:14, III:2-III:7-III:14 via X1; linker I:16-II:16-III:16 via X3) [BCY12259]”: the 50% inhibitory concentration (IC50) in test [1] (setting [2]) was determined as 14.4 nM. Moreover, in test [1] (geomean of n=3), the “Inhibition at top concentration” value is given as 61%. Further, the dissociation constant Kd on human P-Selectin protein came out at 0.233 nM.
In the same order, the values of “I: ACDAD[1Nal]CDVPSLPCAK-NH2 / II: ACDAD[1Nal]CDVPSLPCAK-NH2 / III: ACDAD[1Nal]CDVPSLPCAK-NH2 (linker I:2-I:7-I:14, II:2-II:7-II:14, III:2-III:7-III:14 via X1; linker I:16-II:16-III:16 via X3) [BCY12260]” are 9.62 nM, 64% and 0.109 nM.

For the origin of these results see patent US12150998B2, “Bicyclic peptide ligands specific for P-selectin” (BicycleTx Limited, priority 2021, dated 2024).
